Assay results as given in patent US11702427B2 (priority 2018, dated 2023).
Read-outs that look alike come from different tables or passages of the source.

System: HBsAg
Assay: HBsAg assay: inhibition of HBsAg in HepG2.2.15 cells (CLIA immunoassay of supernatant)
Type: cell-based, hepatitis B virus (HBV)
Conditions: supernatant collected at day 6 after exposure, HBsAg chemiluminescence immunoassay
Outline: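 HepG2.2.15 cells (30,000/well) exposed to serially diluted compound (0.5% DMSO) for 2–3 days, then re-dosed in fresh medium for 3–4 more days. On day 6, supernatant HBsAg quantified by chemiluminescence immunoassay; EC50 from dose-response curves. Viability measured separately by CellTiter-Glo.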

[1] = read-out: sAg EC50, HepG2.2.15 cells
[2] = Hepatitis B virus, HepG2.2.15, 144 h, read-out: sAg EC50, HepG2.2.15 cells

Structure (SMILES): CCOc1nc2c(cc1OCCCOC)CC(C(C)C)c1c-2[nH]c(=O)c(C(=O)O)c1O (single isomer, unassigned) [Example 41, 9-Ethoxy-4-hydroxy-5-isopropyl-8-(3-methoxypropoxy)-2-oxo-1,2,5,6-tetrahydro-1,10-phenanthroline-3-carboxylic acid]
- EC50 [1]: 1 nM

Structure (SMILES): COCCCOc1cc2c(cc1CCOC)-c1[nH]c(=O)c(C(=O)O)c(O)c1[C@H](C(C)C)CO2 [Example 72, (S)-4-Hydroxy-5-isopropyl-10-(2-methoxyethyl)-9-(3-methoxypropoxy)-2-oxo-1,2,5,6-tetrahydrobenzo[2,3]oxepino[4,5-b]pyridine-3-carboxylic acid]
- EC50 [2]: 600 nM

Structure (SMILES): COCCCOc1cc2c(nc1OC)-c1[nH]c(=O)c(C(N)=O)c(O)c1C(C(C)(C)C)C2 (single isomer, unassigned) [Example 60, 5-(tert-Butyl)-4-hydroxy-9-methoxy-8-(3-methoxypropoxy)-2-oxo-1,2,5,6-tetrahydro-1,10-phenanthroline-3-carboxamide]
- EC50 [1]: 2 nM

Structure (SMILES): COCCCOc1cc2c(nc1OC)-c1[nH]c(=O)c(C(N)=O)cc1C(C(C)(C)C)C2 (centres unmarked) [Example 62, 5-(tert-Butyl)-9-methoxy-8-(3-methoxypropoxy)-2-oxo-1,2,5,6-tetrahydro-1,10-phenanthroline-3-carboxamide]
- EC50 [2]: 25 nM

Structure (SMILES): COCCCOc1cc2c(nc1Cl)-c1[nH]c(=O)c(C(=O)O)c(O)c1C(C(C)C)C2 (single isomer, unassigned) [Example 28, 9-Chloro-4-hydroxy-5-isopropyl-8-(3-methoxypropoxy)-2-oxo-1,2,5,6-tetrahydro-1,10-phenanthroline-3-carboxylic acid]
- EC50 [1]: 43 nM

Structure (SMILES): COCCCOc1cc2c(nc1Cl)-c1[nH]c(=O)c(C(=O)O)c(O)c1C(C(C)(C)C)CO2 (single isomer, unassigned) [Example 77, 7-(tert-Butyl)-2-chloro-8-hydroxy-3-(3-methoxypropoxy)-10-oxo-6,7,10,11-tetrahydrooxepino[3,2-b:4,5-b′]dipyridine-9-carboxylic acid]
- EC50 [1]: 6 nM

Structure (SMILES): COCCCOc1cc2c(nc1OC)-c1[nH]c(=O)c(C(=O)O)c(O)c1C(C(C)C)C2 (single isomer, unassigned) [Example 35, 4-Hydroxy-5-isopropyl-9-methoxy-8-(3-methoxypropoxy)-2-oxo-1,2,5,6-tetrahydro-1,10-phenanthroline-3-carboxylic acid]
- EC50 [1]: 150 nM

Structure (SMILES): COCCCOc1cc2c(cc1OC)-c1[nH]c(=O)c(C(=O)O)c(Cl)c1C(C(C)C)C2 (centres unmarked) [Example 20, 4-Chloro-5-isopropyl-9-methoxy-8-(3-methoxypropoxy)-2-oxo-1,2,5,6-tetrahydrobenzo[h]quinoline-3-carboxylic acid]
- EC50 [2]: 3800 nM

Structure (SMILES): COCCCOc1cc2c(nc1Cl)-c1[nH]c(=O)c(C(=O)O)c(O)c1C(C(C)(C)C)CO2 (single isomer, unassigned) [Example 78, 7-(tert-Butyl)-2-chloro-8-hydroxy-3-(3-methoxypropoxy)-10-oxo-6,7,10,11-tetrahydrooxepino[3,2-b:4,5-b′]dipyridine-9-carboxylicacid]
- EC50 [1]: 6000 nM

Structure (SMILES): COCCCOc1cc2c(cc1OC)-c1[nH]c(=O)c(C(=O)O)c(OC)c1C(C(C)C)C2 (centres unmarked) [Example 87, 5-Isopropyl-4,9-dimethoxy-8-(3-methoxypropoxy)-2-oxo-1,2,5,6-tetrahydrobenzo[h]quinoline-3-carboxylicacid]
- EC50 [2]: 85 nM

Structure (SMILES): COCCCOc1cc2c(cc1OC)-c1[nH]c(=O)c(C(=O)O)cc1C(C(C)C)C2 (single isomer, unassigned) [Example 3, 5-Isopropyl-9-methoxy-8-(3-methoxypropoxy)-2-oxo-1,2,5,6-tetrahydrobenzo[h]quinoline-3-carboxylic acid]
- EC50 [1]: 2000 nM
